The results in this text go back to ChEMBL document CHEMBL1641419, “Discovery of pyrazolo[1,5-a]pyrimidine-based CHK1 inhibitors: a template-based approach--part 2” (Bioorg Med Chem Lett, 2011).

In assay [1] the target is Cyclin-dependent kinase 2/cyclin A (Homo sapiens, UniProt P24941). In words: Inhibition of recombinant CDK2/Cyclin A expressed in insect Sf9 cells assessed as inhibition of [33P]-ATP incorporation into biotinylated histone H1 after 1 hr by liquid scintillation counting.
Assay [2] addresses T1, Serine/threonine-protein kinase Chk1 (Homo sapiens, UniProt O14757).
T1 sequence (O14757 whole entry): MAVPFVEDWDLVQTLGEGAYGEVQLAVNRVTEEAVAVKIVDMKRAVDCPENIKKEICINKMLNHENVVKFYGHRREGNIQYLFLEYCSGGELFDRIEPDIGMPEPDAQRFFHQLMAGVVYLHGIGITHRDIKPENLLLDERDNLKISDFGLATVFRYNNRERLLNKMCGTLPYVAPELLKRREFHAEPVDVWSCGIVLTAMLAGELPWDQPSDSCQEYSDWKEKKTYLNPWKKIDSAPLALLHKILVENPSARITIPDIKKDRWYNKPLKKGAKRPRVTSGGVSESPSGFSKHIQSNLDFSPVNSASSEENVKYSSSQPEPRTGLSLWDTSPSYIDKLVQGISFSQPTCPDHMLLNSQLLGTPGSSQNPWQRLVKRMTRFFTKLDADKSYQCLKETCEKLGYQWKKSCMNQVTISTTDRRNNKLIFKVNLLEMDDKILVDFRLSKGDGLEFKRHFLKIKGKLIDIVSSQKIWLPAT
Description: Inhibition of histidine-tagged recombinant CHK1 expressed in baculovirus expression system after 2 hrs by scintillation proximity assay

The term IC50 denotes the concentration needed to halve the response being measured. Consider `COC/C=C/c1c(C2CCCNC2)nc2c(-c3cnn(C)c3)cnn2c1N` (stereo not drawn), for which the IC50 in assay [1] turned out to be 2200 nM.
With `Cn1cc(-c2cnn3c(N)c(Br)c(C4CCNC4)nc23)cn1` (stereo not drawn), the figures for the IC50 in assay [2] and in assay [1] were 31 nM and 510 nM, respectively.
The matching figures for `Cn1cc(-c2cnn3c(N)c(CCO)c(C4CCCNC4)nc23)cn1` (stereo not drawn): 26 nM and 48 nM.
Consider `Cn1cc(-c2cnn3c(N)c(Br)c(C[C@H]4CCC[C@@H](N)C4)nc23)cn1` (relative stereo), for which the IC50 in assay [2] was determined as 5 nM; in assay [1], 440 nM.
The matching figures for `Cn1cc(-c2cnn3c(N)c(C#N)c(C4CCCNC4)nc23)cn1` (stereo not drawn): 100 nM and 1700 nM.
For `Cn1cc(-c2c(C3CCCNC3)nc3c(-c4cnn(C)c4)cnn3c2N)cn1` (stereo not drawn) the same measures were 100 nM and 22000 nM.
As for `Cn1cc(-c2cnn3c(N)c(C4CC4)c(C4CCCNC4)nc23)cn1` (stereo not drawn), the IC50 in assay [1] was 170 nM.
On to `Cn1cc(-c2cnn3c(N)c(I)c(C4CCCNC4)nc23)cn1` (stereo not drawn), for which the IC50 in assay [1] is 330 nM.
Regarding `Cn1cc(-c2cnn3c(N)c(Br)c(C4CCNCC4)nc23)cn1`, the IC50 was determined as 35 nM in assay [2] and 490 nM in assay [1].
Regarding `Cn1cc(-c2cnn3c(N)c(-c4cccs4)c(C4CCCNC4)nc23)cn1` (stereo not drawn), the IC50 in assay [1] was determined as 990 nM.
On the same count and under the same terms, with `Cn1cc(-c2cnn3c(N)c(-c4ccoc4)c(C4CCCNC4)nc23)cn1` (stereo not drawn) the figure was 2300 nM.
`Cn1cc(-c2cnn3c(N)c(Br)c(C4CNCCS4)nc23)cn1` (stereo not drawn): the IC50 in assay [1] was 150 nM.
`Cn1cc(-c2cnn3c(N)c(Br)c(CC4CCCNC4)nc23)cn1` (stereo not drawn) yielded an IC50 in assay [2] of 7 nM.
As to `Nc1c(Br)c(C2CCCNC2)nc2c(-c3cccnc3)cnn12` (stereo not drawn), the results for the IC50 in assay [2] and in assay [1] were 17 nM and 170 nM, respectively.
For `Cn1cc(-c2cnn3c(N)c(Br)c(C4CCCCN4)nc23)cn1` (stereo not drawn) the same measures were 2900 nM and 28700 nM.
For the molecule `CCc1c(C2CCCNC2)nc2c(-c3cnn(C)c3)cnn2c1N` (stereo not drawn), in assay [1], the IC50 came out at 330 nM.
For `Cn1cc(-c2cnn3c(N)c(-c4cccnc4)c(C4CCCNC4)nc23)cn1` (stereo not drawn), the IC50 in assay [1] was 1500 nM.
On to `Cn1cc(-c2cnn3c(N)c(Br)c(CC4CCNC4)nc23)cn1` (stereo not drawn), for which 7 nM corresponded to half-maximal inhibition in assay [2] (IC50).
As for `Cn1cc(-c2cnn3c(N)c(-c4ccccc4)c(C4CCCNC4)nc23)cn1` (stereo not drawn), in assay [1], the IC50 turned out to be 8300 nM.
Same read-out and setting: with `Nc1c(Br)c(C2CCCNC2)nc2c(-c3ccoc3)cnn12` (stereo not drawn) the figure was 100 nM.
Consider `Cc1ncc(-c2cnn3c(N)c(Br)c(C4CCCNC4)nc23)s1` (stereo not drawn), for which the IC50 in assay [2] was found to be 8 nM; in assay [1], 200 nM.
With `Cn1cc(-c2cnn3c(N)c(Br)c(CCN)nc23)cn1`, in assay [2], the midpoint of inhibition, the IC50, lay at 34 nM.
With `CC#Cc1c(C2CCCNC2)nc2c(-c3cnn(C)c3)cnn2c1N` (stereo not drawn), the half-maximal inhibitory concentration (IC50) in assay [1] amounted to 520 nM.
As to `Cn1cc(-c2cnn3c(N)c(-c4ccncc4)c(C4CCCNC4)nc23)cn1` (stereo not drawn), in assay [1], the IC50 stood at 11000 nM.
As to `Cn1cc(-c2cnn3c(N)c(Br)c(-c4cccnc4)nc23)cn1`, the IC50 was determined as 4000 nM in assay [2] and 1300 nM in assay [1].
In the case of `Cn1cc(-c2cnn3c(N)c(Br)c(C4CCCNC4)nc23)cn1` (stereo not drawn), in assay [1], the IC50 stood at 160 nM.
As for `Cn1cc(-c2cnn3c(N)c(Cl)c(C4CCCNC4)nc23)cn1` (stereo not drawn), the IC50 turned out to be 3 nM in assay [2] and 310 nM in assay [1].
With `Cn1cc(-c2cnn3c(N)c(-c4ccsc4)c(C4CCCNC4)nc23)cn1` (stereo not drawn), the half-inhibitory concentration (IC50) in assay [1] came out at 2200 nM.
As for `Cn1cc(-c2cnn3c(N)c(Br)c(C4CNCCO4)nc23)cn1` (stereo not drawn), the IC50 in assay [2] is 130 nM; in assay [1], 1200 nM.
For `Cn1cc(-c2cnn3c(N)c(Br)c(CC4CCNCC4)nc23)cn1` the same measures were 87 nM and 2800 nM.
